# Test results: patent publication US6794365B2, “Malonic acid derivatives, processes for their preparation their use and pharmaceutical compositions containing them” (Aventis Pharma Deutschland GmbH, priority 2000, dated 2004)
# Counter-ions that a name gives are not always drawn. Like-named read-outs stand apart in the source and are kept apart here.
# B1: antistasin (protein, UniProt P15358 18-136, looked up)
# Antistasin: QGPFGPGCEEAGCPEGSACNIITDRCTCSGVRCRMHCPHGFQRSRYGCEFCKCRLEPMKATCDISECPEGMMCSRLTNKCDCKIDINCRKTCPNGLKRDKLGCEYCECRPKRKLIPRLS
# What was measured:
# thrombin and factor Xa = details: rate of inactivation thrombin vs factor Xa; cited from earlier work
# [1] = TAP at less than about two fold aPTT prolongation; heparin at doses causing five fold aPTT increase; cited from earlier work
# [2] = recombinantly-produced inhibitor; cited from earlier work
# factor Xa [3] = target: T1, factor Xa (Homo sapiens, UniProt P00742); details: cited from earlier work
# factor Xa [4] = target: T1, factor Xa; assay: In vitro Factor Xa assay (Test 1a), chromogenic substrate S-2765; format: biochemical; parameters: purchased Enzyme Research Laboratories, Inc; South Bend, Ind; details: Factor Xa inhibitory activity; Ki from IC50 corrected for substrate competition; 25° C., pH 7.8; read-out: Ki (FXa)
# Protocol: Purified enzymes are used in chromogenic assays. To determine the inhibition constant, the IC50 value is corrected for competition with substrate using the formula: […] where Km is the Michaelis-Menten-constant (Y.-C. Chen and W. H. Prusoff, Biochem. Pharmacol. 22: […] (1973), which is incorporated herein by reference). TBS-PEG buffer (50 mM Tris-Cl, pH 7.8, 200 mM NaCl, 0.05% (w/v) PEG-8000, 0.02% (w/v) NaN3) is used for this assay. The IC50 is determined by combining in appropriate wells of a Costar half-area microtiter plate 25 μl human factor Xa (Enzyme Research Laboratories, Inc.; South Bend, Ind.) in TBS-PEG; 40 μl 10% (v/v) DMSO in TBS-PEG (uninhibited control) or various concentrations of the compound to be tested diluted in 10% (v/v) DMSO in TBS-PEG; and substrate S-2765 (N-benzyloxycarbonyl-[…]-nitroanilide; Kabi Pharmacia, Inc.; Franklin Ohio) in TBS-PEG. […] The initial velocity of chromogenic substrate hydrolysis is measured by the change in absorbance at 405 nm using a Bio-tek Instruments kinetic plate reader ([…] 25° C. during the linear portion of the time course (usually 1.5 min after addition of substrate).
# [5] = subcutaneous; cited from earlier work
# T1 sequence (P00742 235-488 limits assumed): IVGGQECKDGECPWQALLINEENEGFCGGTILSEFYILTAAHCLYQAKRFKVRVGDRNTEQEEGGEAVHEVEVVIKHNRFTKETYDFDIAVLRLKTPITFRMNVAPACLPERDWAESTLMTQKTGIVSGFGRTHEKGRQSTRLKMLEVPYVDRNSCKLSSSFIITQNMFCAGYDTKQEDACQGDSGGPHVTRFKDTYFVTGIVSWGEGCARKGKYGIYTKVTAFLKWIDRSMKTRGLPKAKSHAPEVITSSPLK
# T1 sequence (P00742 41-179 partner limits assumed): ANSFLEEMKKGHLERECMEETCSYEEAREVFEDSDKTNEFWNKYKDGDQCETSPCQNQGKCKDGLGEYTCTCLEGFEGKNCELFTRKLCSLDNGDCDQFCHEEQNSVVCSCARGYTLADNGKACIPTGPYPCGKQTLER
molecule,measurement,setting,value
heparin [reference compound],thrombin inactivated faster than factor Xa,thrombin and factor Xa,approximately 100 times
same,prevention of high-shear arterial thrombosis and reduced flow in graft,[1],did not prevent thrombosis
"tick anticoagulant peptide (YNRLCIKPRDWIDECDSNEGGERAYFRNGKGGCDSFWICPEDHTGADYYSSYRDCFNACI; UniProt P17726 1-60, looked up) [TAP]",prevention of high-shear arterial thrombosis and reduced flow in graft,[1],effectively prevents
same,prevention of clotting,[2],prevent clotting
same,Ki,factor Xa [3],~0.5 nM
"C=CCNC(=O)C(Cc1ccc(C(=N)N)cc1)C(=O)N[C@@H](CCCN)C(=O)N[C@@H](CCCNC(=N)N)C(N)=O (stereo partly drawn) [Example 45, N-Allyl-N′-[4-amino-1-(S)-(1-(S)-carbamoyl-4-guanidino-butylcarbamoyl)-butyl]-2-(4-carbamimidoyl-benzyl)-malonamide trifluoroacetic acid salt]",Ki,factor Xa [4],26500 nM
B1,treatment effect in DIC model,[5],effective treatment
same,prevention of clotting,[2],prevent clotting
same,Ki,factor Xa [3],0.05 nM
